Laboratory results as given in patent publication US20200023067A1, “DUAL-ACTION ELAFIBRANOR METFORMIN SALT FOR TREATING OBESITY ASSOCIATED WITH NON-ALCOHOLIC STEATOHEPATITIS (NASH) AND […]” (NASHPHARM, priority 2016, published 2020).
Values after ≈ are worked out from the molar mass of the structure shown. Values joined by “and” are separate entries in the source; they are usually repeats but may differ in a detail not shown here. Equal values may be shown once. Read-outs that look alike come from different tables or passages of the source.

How the values were obtained:
Assay type in all cases: physicochemical
[1] = Thermodynamic solubility of elafibranor in aqueous buffers and cosolvents; conditions: for solubility at 72 h / solubility at 24 h / solubility: 23 °C, thermodynamic from solid; for solubility at 72 h / solubility at 24 h: ambient temperature (22°-24° C.); for solubility at 72 h: read-out: Solubility after 72 hours; for solubility at 24 h: read-out: Solubility after 24 hours
Method: The thermodynamic solubility of the basic elafibranor is studied over a period of 24 hours and 72 hours in various aqueous buffers in the presence or not of surfactants. Batch number EM0274L2 is used for this work. After 24 hours and 72 hours of incubation at ambient temperature (22°-24° C.), the solutions are sampled and then filtered over 0.2 μm polycarbonate filters in flasks for LCMS analyses, and diluting once in DMSO before stirring for 2 minutes (vortex or sonification).

[2] = as above; conditions: for solubility at 24 h: read-out: Solubility after 24 hours
[3] = Solubility test on the elafibranor (GFT505) metformin salt; conditions: organic solvent or mixture, thermodynamic from solid, ambient temperature
[4] = Stability after exposure to light and temperature, by UPLC MS; conditions: powder form or solution; daylight, ambient temperature; compared with the salt
Method: The products were exposed to daylight and to ambient temperature.
The reference samples for their part are stored cool (2°-8° C.), protected from light by aluminum paper and under inert gas for the solid product.

[5] = Solubility test on the elafibranor (GFT505) metformin salt; conditions: aqueous buffer, thermodynamic from solid
Method: The solubility kinetics is determined in an aqueous medium (water and pharmacopoeia buffers), at ambient temperature.

[6] = aqueous buffer, aqueous buffer, Buffer pH 4.6
[7] = aqueous buffer, aqueous buffer, Buffer pH 7.4
[8] = aqueous buffer, aqueous buffer, Buffer pH 8.5

CSc1ccc(C(=O)/C=C/c2cc(C)c(OC(C)(C)C(=O)O)c(C)c2)cc1 [elafibranor, 2-[2,6 dimethyl-4-[3-[4-(methylthio)phenyl]-3-oxo-1(E)-propenyl]phenoxyl]-2-methylpropanoic acid]
solubility at 72 h ([1]; organic solvent or mixture, Propylene glycol): 35100 µM and 13500 µg/mL | solubility at 24 h [1, 6]: 114 µM and 44 µg/mL | solubility at 72 h [1, 6]: 110 µM and 42 µg/mL | solubility at 24 h [1, 7]: 504 µM and 194 µg/mL | solubility at 72 h [1, 7]: 609 µM and 234 µg/mL | solubility at 24 h [1, 8]: 4420 µM and 1700 µg/mL | solubility at 72 h [1, 8]: 4270 µM and 1640 µg/mL | solubility ([1]; aqueous buffer, pH 4.6, aqueous buffer): 114 µM (≈ 43.8 µg/mL) | solubility ([1]; aqueous buffer, pH 8.5, aqueous buffer): 4420 µM (≈ 1700 µg/mL) | Solubility in an aqueous medium ([1]; aqueous medium): low | solubility at 24 h ([2]; 23 °C, organic solvent or mixture, thermodynamic from solid, Polyethylene glycol 400, ambient temperature (22°-24° C.)): 39000 µM and 15000 µg/mL | solubility at 72 h ([2]; 23 °C, organic solvent or mixture, thermodynamic from solid, Polyethylene glycol 400, ambient temperature (22°-24° C.), read-out: Solubility after 72 hours): 41000 µM and 15800 µg/mL | solubility at 24 h ([2]; 23 °C, organic solvent or mixture, thermodynamic from solid, Propylene glycol, ambient temperature (22°-24° C.)): 33500 µM and 12900 µg/mL | Effect of cosolvent on solubility ([2]; addition of cosolvent such as propylene glycol or PEG 400): significantly improves the solubility | solubility ([3]; Polyethylene glycol 400): 39000 µM and 15000 µg/mL | solubility ([3]; Propylene glycol): 33500 µM and 12900 µg/mL | Sensitivity to light (photosensitivity) [4]: more sensitive to light | solubility ([5]; Buffer pH 4.6, ambient temperature): 114 µM and 44 µg/mL | solubility ([5]; Buffer pH 7.4, ambient temperature): 504 µM and 194 µg/mL | solubility ([5]; Buffer pH 8.5, ambient temperature): 4420 µM and 1700 µg/mL
